Assay results as given in patent US4529549A, “Spergualin-related compounds and process for the preparation thereof” (Zaidan Hojin Biseibutsu Kagaku Kenkyu Kai, priority 1982, dated 1985).
Converted amounts (≈) assume the structure as drawn. Read-outs that look alike come from different tables or passages of the source.

Tests used:
[1] = Stability of the compounds in aqueous solutions (HPLC residual content); type: physicochemical; details: water
Method: Each of the compounds of this invention was dissolved in water to a concentration of 0.5 (w/w)%. The aqueous solution was maintained at 40°±1° C., and sampled at certain time intervals. Each sample was subjected to high-performance liquid chromatographic analysis to measure the area of the peak of the compound at each sampling time, and to calculate the ratio of the area of the peak after the indicated period of time to that at the first sampling time. The results of the calculation were used to determine the contents (%) of the compound of this invention in the aqueous solution after the indicated periods of time, with the initial content of said compound set at 100%.

Bacillus subtilis PCI219 = test: Growth-inhibiting action on Bacillus subtilis (agar plate MIC); type: cell-based; details: Bacillus subtilis
Method: Each of the compounds of this invention was dissolved in nutrient agar media to final concentrations of 100, 50, 25, 12.5, 6.25, 3.13 and 1.56 μg/ml, to prepare agar plates for testing. Bacillus subtilis PCI219 was adjusted to a content of 1×10^6 viable cells/ml, in a culture broth, and a loopful of the broth was applied onto the agar plates. The plates were incubated for 20 hours at 37° C. under stationary conditions, and observed for the formation of colonies of Bacillus subtilis. The lowest of the concentrations at which no colonies were formed was taken to be minimum inhibitory concentration (MIC).

mouse leukemia L1210 = test: Life-prolonging effect in mouse leukemia L1210; type: in vivo, mouse (male CDF1-SLC); details: once daily for 9 days, >125 effective
Method: (§1) Leukemia L1210 cells (1×10^5 /0.2 ml) were transplanted intraperitoneally into male CDF1 -SLC mice (6 mice/group). Each of the compounds of this invention was diluted with physiological saline to various concentrations. Each dilution was administered at a dose of 0.1 ml/10 g of body weight once daily for 9 days, starting on the day after the day of the transplantation. The mice of the control group were administered physiological saline.
The average number of days that the group receiving the compound of this invention survived was calculated. The FIGURE obtained was divided by the average number of survival days for the control group, and was multiplied by 100 (T/C (%)). T/C value more than 125 was considered to be effective.

[2] = test system: mouse leukemia L1210 cells; test: In vitro proliferation-inhibiting action on mouse leukemia L1210 cells; type: cell-based; details: 48 hours at 37° C.
Method: Leukemia L1210 cells (1×10^5 /0.2 ml) were transplanted to female DBA/2 mice intraperitoneally. four days later, the ascitic fluid was collected and centrifuged to obtain proliferated L1210 cells. The L1210 cells collected were added to RPMI1640 medium containing bovine fetal serum and 2-mercaptoethanol, to obtain a suspension of L1210 cells having a final concentration of 5×10^4 cells/0.9 ml. Each of the compounds of this invention was dissolved in said culture medium to prepare solutions with final concentrations ranging from 0.062 to 100 μg/ml. 0.9 ml of the L1210 cell suspension and 0.1 ml of each test solution were mixed in petri dishes, and incubated for 48 hours at 37° C. in an incubator under an atmosphere of carbon dioxide gas. The number of L1210 cells was counted before and after the incubation, and that concentration of the compound which inhibited the proliferation of L1210 cells by 50% of the control's proliferation was determined (IC50).

[3] = Toxicity: change in body weight in mice transplanted with L1210; type: in vivo, mouse (male CDF1-SLC); details: once daily for 9 days
Method: as §1
Change in body weight, the measure of the toxicity of the compounds of this invention, was expressed by a difference between the change in body weight for the group receiving the compound of this invention and that for the control group receiving physiological saline and undergoing no transplantation.

mouse leukemia L-1210 = details: cited from earlier work
Gram-positive bacteria = details: cited from earlier work
sarcoma 180 (S-180) = details: cited from earlier work
Gram-negative bacteria = details: cited from earlier work
mouse leukemia FL-4 = details: cited from earlier work
Ehrlich carcinoma = details: cited from earlier work

| SMILES | remaining at 12 h [1] | remaining at 24 h [1] | remaining at 48 h [1] | remaining at 72 h [1] | remaining at 120 h [1] | remaining at 168 h [1] | T/C (%) (mouse leukemia L1210; 0.39 mg/kg/day) | T/C (%) (mouse leukemia L1210; 0.78 mg/kg/day) | T/C (%) (mouse leukemia L1210; 1.56 mg/kg/day) | T/C (%) (mouse leukemia L1210; 3.13 mg/kg/day) | T/C (%) (mouse leukemia L1210; 6.25 mg/kg/day) | T/C (%) (mouse leukemia L1210; 12.50 mg/kg/day) | T/C (%) (mouse leukemia L1210; 25.00 mg/kg/day) | T/C (%) (mouse leukemia L1210; 50.00 mg/kg/day) | IC50 [2] | Change in body weight (g) ([3]; 0.39 mg/kg/day) | Change in body weight (g) ([3]; 0.78 mg/kg/day) | Change in body weight (g) ([3]; 1.56 mg/kg/day) | Change in body weight (g) ([3]; 3.13 mg/kg/day) | Change in body weight (g) ([3]; 6.25 mg/kg/day) | other results |
| --- | --- | --- | --- | --- | --- | --- | --- | --- | --- | --- | --- | --- | --- | --- | --- | --- | --- | --- | --- | --- | --- |
| Cl.Cl.Cl.N=C(N)NCCCCCCC(=O)NCC(=O)NCCCCNCCCN [Compound 1, 10-[N-(7-guanidinoheptanoyl)-glycyl]-1,5,10-triazadecane trihydrochloride] | 99.7% | 100% | 99.7% | 99.7% | 99.8% | 99.9% | 126% | > 250% | > 388% | > 667% | > 769% | > 528% | > 279% | 12.9% | 1.7 µg/mL | +1.8 g | +2.7 g | +1.0 g | +0.8 g | +0.9 g | MIC (Bacillus subtilis PCI219; PCI219, nutrient agar, 20 hours at 37° C., read-out: MIC): 6.25 µg/mL; Change in body weight (g) ([3]; 12.50 mg/kg/day): +0.2 g; Change in body weight ([3]; 25.00 mg/kg/day): -1.6 g |
| Cl.Cl.Cl.N=C(N)NCCCCCCC(=O)N[C@@H](CO)C(=O)NCCCCNCCCN [Compound 2, 10-[N-(7-guanidinoheptanoyl)-L-seryl]-1,5,10-triazadecane trihydrochloride] | 100% | 100% | 99.8% | 100% | 99.7% | 99.8% | 124% | > 346% | > 769% | > 769% | > 705% | > 612% | 100% | 12.8% | 4.5 µg/mL | +2.7 g | +1.5 g | +1.3 g | +0.6 g | +1.0 g | MIC (Bacillus subtilis PCI219; PCI219, 20 h): 12.5 µg/mL; Change in body weight ([3]; 12.50 mg/kg/day): -0.2 g |
| N=C(N)NCCCCC(O)CC(=O)NC(O)C(=O)NCCCCNCCCN (stereo not drawn) [Spergualin] | – | – | – | – | – | – | – | 129% | > 224% | > 665% | > 769% | > 700% | > 524% | > 342% | 4.6 µg/mL (≈ 11.4 µM) | – | +0.8 g | +2.5 g | +1.2 g | +0.9 g | Residual content (%) of the compound in an aqueous solution ([1]; 12 h): 94.6%; Residual content (%) of the compound in an aqueous solution ([1]; 24 h): 90.8%; Residual content (%) of the compound in an aqueous solution ([1]; 48 h): 84.6%; Residual content (%) of the compound in an aqueous solution ([1]; 72 h): 78.5%; Residual content (%) of the compound in an aqueous solution ([1]; 120 h): 69.9%; Residual content (%) of the compound in an aqueous solution ([1]; 168 h): 65.1%; curing effect and life extension effect (mouse leukemia L-1210): distinctive curing effect and life extension effect; growth inhibitory activity (Gram-positive bacteria): growth inhibitory activity; curing effect and life extension effect (sarcoma 180 (S-180)): distinctive curing effect and life extension effect; growth inhibitory activity (Gram-negative bacteria): growth inhibitory activity; curing effect and life extension effect (mouse leukemia FL-4): distinctive curing effect and life extension effect; curing effect and life extension effect (Ehrlich carcinoma): distinctive curing effect and life extension effect; Change in body weight (g) ([3]; 12.50 mg/kg/day): +0.8 g; Change in body weight (g) ([3]; 25.00 mg/kg/day): +1.1 g; Change in body weight (g) ([3]; 50.00 mg/kg/day): +0.2 g |
